Reference: US20160024051A1, “SALTS AND SOLID FORMS OF ISOQUINOLINONES AND COMPOSITION COMPRISING AND METHODS OF USING THE SAME” (INFINITY PHARMACEUTICALS, INC., priority 2013, published 2016)

Columns and labels:
[1] = 24 hours
[2] = Storage at 25° C./93% RH for 1 week, re-analysis by XRPD/HPLC; format: physicochemical; conditions: after 1 week, XRPD
[3] = Gravimetric vapour sorption (GVS); format: physicochemical
Outline: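 Moisture sorption isotherm at 25° C, 0-90% RH in 10% RH steps, 2 scans giving one full cycle, starting from 40% RH. Each step equilibrated 1-4 h until mass within 5% of predicted asymptote; solid re-checked by XRPD afterwards.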

[4] = Thermodynamic aqueous solubility; format: physicochemical; conditions: at pH 6.47
[5] = Drying experiments: heating in an oven at 125° C. for two hours, XRPD; format: physicochemical
[6] = Storage at 40° C./75% RH (elevated humidity) for 1 week, re-analysis by XRPD/HPLC; conditions: after 1 week, XRPD
Protocol: The crystalline solids were filtered, dried at ambient conditions, and stored at 40° C./75% RH for 1 week and analyzed by ^1H NMR/IC.
Samples from the screen using amorphous free base Compound 1 were analysed by ^1H-NMR and DSC, and re-analysis by XRPD was also carried out after drying at 50° C./vacuum and storage at 40° C./75% RH (the same sample was dried and stored at elevated humidity).

[7] = pKa of the basic nitrogen atoms; format: physicochemical; conditions: at least two basic nitrogen atoms
[8] = Free base solubility assessment in 15 solvents (free base Form 1); format: physicochemical
Protocol: Approximately 11 mg (0.022 mmol) portions of the free base Form 1 of Compound 1 (i.e., the compound of formula (I)) were weighed into 2 ml screw-topped HPLC vials. One of 15 solvents was added to each vial in a number of aliquots (up to 100 volumes), with shaking and if necessary with heating to 40° C., in an attempt to achieve dissolution.

[9] = PK properties in non-clinical animal species (all species); format: in vivo, CD-1 mouse, Wistar rat, Cyno monkey, Beagle dog; conditions: non-clinical animal species
Protocol: (§1) For example, Compound 1 bis-hydrogen sulfate monohydrate was evaluated in CD-1 mouse, Wistar rat, Cyno monkey, and Beagle dog. Cross species allometric scaling of CL (drug clearance) and Vss (volume at steady state) predicts low CL, high Vss and long T112 for Compound 1 in humans.

[10] = Cross species allometric scaling of CL and Vss to humans
Protocol: as §1

PI3K-δ = PI3K-δ (Homo sapiens, UniProt O00329); assay: Kd determination, PI3K-δ; format: binding
PI3K-γ = PI3K-γ (Homo sapiens, UniProt P48736); assay: Kd determination, PI3K-γ; format: binding
PI3K-α = PI3K-α (Homo sapiens, UniProt P42336); assay: Kd determination, PI3K-α; format: binding
PI3K-β = PI3K-β (Homo sapiens, UniProt P42338); assay: Kd determination, PI3K-β; format: binding
PI3K-β, sequence (P42338 whole entry): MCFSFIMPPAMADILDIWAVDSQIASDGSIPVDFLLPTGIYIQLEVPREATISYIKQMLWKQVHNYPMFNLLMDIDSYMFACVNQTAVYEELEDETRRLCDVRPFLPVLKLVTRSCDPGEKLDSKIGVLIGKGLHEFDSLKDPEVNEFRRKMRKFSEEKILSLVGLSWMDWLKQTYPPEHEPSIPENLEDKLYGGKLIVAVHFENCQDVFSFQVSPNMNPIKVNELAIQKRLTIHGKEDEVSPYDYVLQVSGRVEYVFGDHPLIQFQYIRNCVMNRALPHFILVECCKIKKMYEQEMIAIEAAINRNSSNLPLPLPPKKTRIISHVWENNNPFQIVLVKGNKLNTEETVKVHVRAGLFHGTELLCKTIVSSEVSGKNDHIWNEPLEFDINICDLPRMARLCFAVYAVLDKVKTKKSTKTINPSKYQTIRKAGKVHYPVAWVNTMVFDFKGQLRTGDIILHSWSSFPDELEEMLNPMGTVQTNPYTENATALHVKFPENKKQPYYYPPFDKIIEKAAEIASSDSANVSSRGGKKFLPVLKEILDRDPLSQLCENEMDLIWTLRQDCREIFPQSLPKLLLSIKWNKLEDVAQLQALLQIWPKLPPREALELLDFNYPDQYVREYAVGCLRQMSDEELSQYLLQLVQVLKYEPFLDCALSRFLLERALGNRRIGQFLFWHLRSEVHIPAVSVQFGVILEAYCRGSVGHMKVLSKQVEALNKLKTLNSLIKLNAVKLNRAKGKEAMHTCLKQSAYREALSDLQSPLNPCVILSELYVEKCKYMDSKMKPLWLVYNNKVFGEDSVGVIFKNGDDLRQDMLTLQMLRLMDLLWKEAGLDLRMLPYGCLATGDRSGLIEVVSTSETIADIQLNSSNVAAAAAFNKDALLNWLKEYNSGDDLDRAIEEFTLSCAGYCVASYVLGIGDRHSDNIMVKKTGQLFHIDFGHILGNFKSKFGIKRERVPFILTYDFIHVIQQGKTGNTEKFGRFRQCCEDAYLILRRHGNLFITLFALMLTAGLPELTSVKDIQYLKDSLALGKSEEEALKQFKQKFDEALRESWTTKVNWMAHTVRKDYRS
PI3K-β, sequence (P27986 whole entry partner): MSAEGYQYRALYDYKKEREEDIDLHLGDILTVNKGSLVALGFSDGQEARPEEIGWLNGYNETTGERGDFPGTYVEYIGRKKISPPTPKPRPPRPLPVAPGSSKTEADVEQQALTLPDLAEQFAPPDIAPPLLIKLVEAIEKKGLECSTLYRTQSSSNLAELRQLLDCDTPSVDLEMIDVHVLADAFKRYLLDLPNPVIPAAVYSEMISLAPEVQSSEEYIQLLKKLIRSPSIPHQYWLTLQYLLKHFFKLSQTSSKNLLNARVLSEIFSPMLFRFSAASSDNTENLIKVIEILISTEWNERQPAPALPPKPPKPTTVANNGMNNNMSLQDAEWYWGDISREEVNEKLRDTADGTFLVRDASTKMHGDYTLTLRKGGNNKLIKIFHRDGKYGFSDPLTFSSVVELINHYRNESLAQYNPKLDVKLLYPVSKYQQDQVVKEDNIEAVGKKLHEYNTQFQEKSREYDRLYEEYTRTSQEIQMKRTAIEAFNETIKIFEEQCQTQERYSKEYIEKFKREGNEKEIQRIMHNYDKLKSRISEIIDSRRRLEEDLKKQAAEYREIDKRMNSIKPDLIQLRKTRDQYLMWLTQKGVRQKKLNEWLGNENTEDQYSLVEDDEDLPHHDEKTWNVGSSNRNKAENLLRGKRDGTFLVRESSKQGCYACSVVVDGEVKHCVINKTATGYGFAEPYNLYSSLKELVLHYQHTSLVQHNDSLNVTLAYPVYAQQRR

PI3K-δ, sequence (O00329 whole entry): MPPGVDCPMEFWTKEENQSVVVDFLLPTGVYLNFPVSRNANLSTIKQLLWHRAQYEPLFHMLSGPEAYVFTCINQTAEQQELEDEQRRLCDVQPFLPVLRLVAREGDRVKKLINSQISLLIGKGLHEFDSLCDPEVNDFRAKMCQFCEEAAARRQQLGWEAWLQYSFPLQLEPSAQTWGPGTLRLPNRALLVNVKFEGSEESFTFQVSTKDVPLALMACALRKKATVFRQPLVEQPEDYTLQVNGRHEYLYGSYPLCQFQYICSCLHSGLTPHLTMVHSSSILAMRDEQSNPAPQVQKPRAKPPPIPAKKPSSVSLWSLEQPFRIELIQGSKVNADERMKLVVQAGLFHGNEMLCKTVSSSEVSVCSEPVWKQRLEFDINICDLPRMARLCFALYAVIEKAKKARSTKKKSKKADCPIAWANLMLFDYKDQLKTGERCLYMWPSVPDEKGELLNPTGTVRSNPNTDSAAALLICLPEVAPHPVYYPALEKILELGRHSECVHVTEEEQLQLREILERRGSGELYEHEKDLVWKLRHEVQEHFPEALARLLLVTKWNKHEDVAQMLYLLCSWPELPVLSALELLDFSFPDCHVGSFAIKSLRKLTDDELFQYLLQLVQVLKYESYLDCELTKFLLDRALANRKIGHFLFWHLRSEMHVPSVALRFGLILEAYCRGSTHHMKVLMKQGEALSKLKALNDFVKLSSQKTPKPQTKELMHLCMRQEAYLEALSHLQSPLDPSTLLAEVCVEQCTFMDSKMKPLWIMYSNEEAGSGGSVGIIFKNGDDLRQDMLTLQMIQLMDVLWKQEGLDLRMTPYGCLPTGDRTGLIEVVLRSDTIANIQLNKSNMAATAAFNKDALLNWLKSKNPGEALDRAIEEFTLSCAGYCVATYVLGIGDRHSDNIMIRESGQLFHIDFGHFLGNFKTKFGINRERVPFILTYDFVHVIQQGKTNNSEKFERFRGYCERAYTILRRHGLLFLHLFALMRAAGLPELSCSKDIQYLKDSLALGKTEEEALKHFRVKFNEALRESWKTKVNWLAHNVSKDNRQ
PI3K-δ, sequence (P27986 whole entry partner): as the sequence (P27986 whole entry partner) above
PI3K-α, sequence (P42336 whole entry): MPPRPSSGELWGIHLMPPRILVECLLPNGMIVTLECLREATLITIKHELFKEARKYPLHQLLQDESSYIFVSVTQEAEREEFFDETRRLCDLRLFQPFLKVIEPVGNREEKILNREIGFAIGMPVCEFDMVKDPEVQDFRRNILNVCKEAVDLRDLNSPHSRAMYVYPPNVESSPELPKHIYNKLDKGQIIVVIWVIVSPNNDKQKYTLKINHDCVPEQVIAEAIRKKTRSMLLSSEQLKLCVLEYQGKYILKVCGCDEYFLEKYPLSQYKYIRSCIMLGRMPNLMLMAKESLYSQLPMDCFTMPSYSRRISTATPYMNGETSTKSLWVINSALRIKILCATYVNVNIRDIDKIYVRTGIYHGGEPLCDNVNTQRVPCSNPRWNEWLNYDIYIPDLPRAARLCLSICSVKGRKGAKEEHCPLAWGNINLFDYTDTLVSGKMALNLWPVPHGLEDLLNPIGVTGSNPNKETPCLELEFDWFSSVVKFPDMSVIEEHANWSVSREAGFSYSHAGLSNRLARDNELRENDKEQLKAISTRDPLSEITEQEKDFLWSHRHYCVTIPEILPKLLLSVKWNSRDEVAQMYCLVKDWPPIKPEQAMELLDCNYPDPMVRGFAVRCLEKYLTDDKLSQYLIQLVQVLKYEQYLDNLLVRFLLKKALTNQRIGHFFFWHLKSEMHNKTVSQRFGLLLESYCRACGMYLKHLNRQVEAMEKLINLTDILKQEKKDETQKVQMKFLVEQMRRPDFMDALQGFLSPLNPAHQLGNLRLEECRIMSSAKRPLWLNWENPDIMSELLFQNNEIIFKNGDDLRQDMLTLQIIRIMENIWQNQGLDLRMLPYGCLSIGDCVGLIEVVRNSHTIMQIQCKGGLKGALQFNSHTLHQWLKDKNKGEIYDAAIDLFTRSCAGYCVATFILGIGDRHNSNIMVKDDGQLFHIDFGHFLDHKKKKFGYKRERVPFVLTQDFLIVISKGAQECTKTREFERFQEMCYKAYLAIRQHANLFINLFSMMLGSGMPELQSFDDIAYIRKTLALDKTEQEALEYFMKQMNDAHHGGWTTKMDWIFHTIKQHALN
PI3K-α, sequence (P27986 whole entry partner): as the sequence (P27986 whole entry partner) above
PI3K-γ, sequence (P48736 whole entry): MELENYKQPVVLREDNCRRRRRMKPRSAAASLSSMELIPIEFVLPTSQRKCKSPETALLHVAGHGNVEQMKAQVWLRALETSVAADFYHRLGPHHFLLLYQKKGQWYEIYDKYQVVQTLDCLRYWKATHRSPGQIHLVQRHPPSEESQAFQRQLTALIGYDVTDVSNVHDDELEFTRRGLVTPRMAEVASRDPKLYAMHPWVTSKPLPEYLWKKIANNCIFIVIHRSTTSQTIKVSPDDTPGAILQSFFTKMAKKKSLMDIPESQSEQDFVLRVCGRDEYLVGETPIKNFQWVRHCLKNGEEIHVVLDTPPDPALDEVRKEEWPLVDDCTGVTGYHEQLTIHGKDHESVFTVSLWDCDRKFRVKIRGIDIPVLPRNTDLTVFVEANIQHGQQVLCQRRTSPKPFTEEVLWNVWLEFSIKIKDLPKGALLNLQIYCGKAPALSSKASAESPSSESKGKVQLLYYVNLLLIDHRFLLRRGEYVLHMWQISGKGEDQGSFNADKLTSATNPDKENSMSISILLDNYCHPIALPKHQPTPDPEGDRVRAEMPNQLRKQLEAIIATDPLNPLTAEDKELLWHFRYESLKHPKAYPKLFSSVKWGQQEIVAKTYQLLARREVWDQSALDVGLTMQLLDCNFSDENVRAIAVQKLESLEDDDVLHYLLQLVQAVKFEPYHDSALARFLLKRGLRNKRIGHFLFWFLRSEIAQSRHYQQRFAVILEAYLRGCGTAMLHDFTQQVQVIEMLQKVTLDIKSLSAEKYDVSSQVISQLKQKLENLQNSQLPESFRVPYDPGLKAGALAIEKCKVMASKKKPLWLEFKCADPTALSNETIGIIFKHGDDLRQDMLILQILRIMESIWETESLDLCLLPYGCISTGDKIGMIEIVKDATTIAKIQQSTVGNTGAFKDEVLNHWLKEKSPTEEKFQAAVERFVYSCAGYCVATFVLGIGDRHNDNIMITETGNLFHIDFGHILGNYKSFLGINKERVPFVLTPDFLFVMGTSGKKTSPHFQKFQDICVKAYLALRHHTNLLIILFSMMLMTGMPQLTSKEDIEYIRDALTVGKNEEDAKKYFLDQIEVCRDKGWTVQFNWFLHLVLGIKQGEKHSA

In the case of COc1cc(-c2cccc3cc([C@H](C)Nc4nc(N)ncc4C#N)n(-c4ccccc4)c(=O)c23)ccn1, the “crystallinity after standing at RT” value [1] is reported as “decreases”.
In the case of COc1cc(-c2cccc3cc([C@H](C)Nc4nc(N)ncc4C#N)n(-c4ccccc4)c(=O)c23)ccn1.O [Compound 1 Free Base Form 2], the “Stability at 25° C./93% RH” value [2] is reported as “Very slight changes after 1 week”, the “GVS: immediate moisture uptake, up to” value ([3]; 40-50% RH, stable on sorption up to 90% RH and desorption down to 10% RH) is reported as “uptake (40-50% RH up to 5.7% w/w) which remains” and the “GVS: moisture on loading” value ([3]; loaded at 40% RH, 25° C.) is reported as 4.7% w/w moisture on loading. Immediate moisture. For the same compound, the “GVS: XRPD after the experiment” value ([3]; re-analysis by XRPD after GVS) was 40% RH. Slight changes by XRPD after the experiment, the Thermodynamic aqueous solubility [4] was 0.005 mg/mL, at pH 6.47 and the “Drying experiments: changes by XRPD” value [5] was “very slight changes by XRPD”. For the same compound, the “Stability at 40° C./75% RH” value [6] was “Very slight changes after 1 week”.
With COc1cc(-c2cccc3cc([C@H](C)Nc4nc(N)ncc4C#N)n(-c4ccccc4)c(=O)c23)ccn1 [Compound 1, (S)-2-amino-4-((1-(8-(2-methoxypyridin-4-yl)-1-oxo-2-phenyl-1,2-dihydroisoquinolin-3-yl)ethyl)amino)pyrimidine-5-carbonitrile] the pKa [7] was ~3.5, the “volumes of solvent in which Compound 1 dissolved” value ([8]; 2-MeTHF) was 50 vol and the “volumes of solvent in which Compound 1 dissolved” value ([8]; DMSO) was 5 vol. The “volumes of solvent in which Compound 1 did not dissolve” value ([8]; EtOAC) was > 100 vol, the “volumes of solvent in which Compound 1 did not dissolve” value ([8]; EtOH) was > 100 vol and the “volumes of solvent in which Compound 1 did not dissolve” value ([8]; EtOH/H2O) was > 100 vol. The “volumes of solvent in which Compound 1 did not dissolve” value ([8]; H2O) was > 100 vol, the “volumes of solvent in which Compound 1 dissolved” value ([8]; MIBK) was 40 vol and the “volumes of solvent in which Compound 1 dissolved” value ([8]; MeOH, shaking, if necessary heating to 40° C.) was 75 vol. For the same compound, the “volumes of solvent in which Compound 1 dissolved” value ([8]; MeOH/anisole (50/50 v/v)) was 10 vol, the “volumes of solvent in which Compound 1 did not dissolve” value ([8]; TBME) was > 100 vol and the “volumes of solvent in which Compound 1 dissolved” value ([8]; THF) was 40 vol. For the same compound, the “volumes of solvent in which Compound 1 did not dissolve” value ([8]; acetone) was > 100 vol, the “volumes of solvent in which Compound 1 did not dissolve” value ([8]; acetonitrile) was > 100 vol and the “volumes of solvent in which Compound 1 did not dissolve” value ([8]; anisole) was > 100 vol. For the same compound, the “volumes of solvent in which Compound 1 dissolved” value ([8]; chloroform) was 40 vol, the oral bioavailability [9] was “Good oral bioavailability” and the “CL (drug clearance) predicted in humans” value ([10]; allometric scaling) was “low”. The “T112 predicted in humans” value ([10]; allometric scaling) was “long”, the “Vss (volume at steady state) predicted in humans” value ([10]; allometric scaling) was “high” and the Forai in humans ([10]; suggested by oral bioavailability in animals) was “good”. For the same compound, the koff (PI3K-δ) was 0.000252 s⁻¹, the kon (PI3K-δ) was 8.23e+06 M⁻¹ s⁻¹ and the Kd (PI3K-δ; read-out: KD = koff/kon) was 0.0306 nM. For the same compound, the koff (PI3K-γ) was 0.000188 s⁻¹, the kon (PI3K-γ) was 1.65e+06 M⁻¹ s⁻¹ and the Kd (PI3K-γ; read-out: KD = koff/kon) was 0.114 nM. It also gave a koff (PI3K-α) of 0.053 s⁻¹, a kon (PI3K-α) of 5.43e+06 M⁻¹ s⁻¹ and a Kd (PI3K-α; read-out: KD = koff/kon) of 9.76 nM. It also gave a koff (PI3K-β) of 0.0126 s⁻¹, a kon (PI3K-β) of 2.03e+06 M⁻¹ s⁻¹ and a Kd (PI3K-β; read-out: KD = koff/kon) of 6.24 nM.
